Patent US8703825B2, “Compounds, use thereof as medicaments, and method of preparation thereof” (Universite de Lorraine, priority 2008, dated 2014)
≈ marks a conversion by molar mass, not a printed value. Read-outs that look alike come from different tables or passages of the source.

Key:
Format in all cases: cell-based
[1] = tested on: Escherichia coli ATCC 25922; assay: MIC by microdilution in liquid medium (CLSI / CA-SFM); conditions: Escherichia coli
Excerpt: (§1) According to the joint recommendations: • of the “Comite de l′Antibiogramme de la Société Française de Microbiologie” (Antibiogram Committee of the French Society of Microbiology) (CA-SFM) [CA-SFM. Communique 2007 (Edition of January 2007). http://www.sfm.asso.fr] and, • of the “Clinical and Laboratory Standards Institute” (CLSI, formerly “National Committee for Clinical Laboratory Standards” or NCCLS) [NCCLS. 2003. Methods for dilution antimicrobial susceptibility tests for bacteria that grow aerobically; approved standard M7-A6, 6th ed. National Committee for Clinical Laboratory Standards, Wayne, Pa., USA.], five reference bacterial strains were used for the study: Escherichia coli ATCC 25922, Pseudomonas aeruginosa ATCC 27853, Staphylococcus aureus ATCC 25923 & ATCC 29213 and Enterococcus faecalis ATCC 29212.
(§2) The bacteria are cultivated either on Mueller-Hinton agar (Difco, 225250), or in Mueller-Hinton broth (Difco, 275730), at 35° C. [Grare M, Mourer M, Fontanay S, Regnouf-de-Vains J B, Finance C, Duval R E. In vitro activity of para-guanidinoethylcalix[4]arene against susceptible and antibiotic-resistant Gram-negative and Gram-positive bacteria. J. Antimicrob Chemother. 2007; 60: 575-81].
(§3) The various molecules tested were prepared in the form of aqueous solution at 10^−2 mol/L. The solutions used for the biological tests are freshly prepared, and stored for a week at most, at 4° C. The solutions are filtered through a filter with pores of 0.22 μm (Millex®GP; 0.22 μm; Millipore; France) before each test.
(§4) Procedure for determining the Minimum Inhibitory Concentration (MIC)
(§5) The minimum inhibitory concentrations (MIC) were determined by the standardized method of microdilution in liquid medium (96-well microplate, U-shaped bottom, Greiner), in Mueller-Hinton broth, with a final inoculum of 10^5-10^6 CFU/mL, depending on the bacterial species, in accordance with the recommendations of the CLSI.
(§6) For the determination of MIC, bacterial suspensions are prepared from an isolated colony, taken from a Mueller-Hinton agar, taken up in 5 mL of Mueller-Hinton broth. After 24 h of growth, the bacterial suspensions are diluted in sterile distilled water in order to obtain an inoculum of 10^5-10^6 CFU/mL. The purity of the bacterial suspensions is tested by isolation on agar and Gram staining.
(§7) The results are the mean value of 4 independent experiments.

[2] = tested on: Enterococcus faecalis ATCC 29212; assay: as above
Excerpt: as §1, §2, §3, §4, §5, §6, §7

[3] = tested on: Staphylococcus aureus ATCC 29213; assay: as above; conditions: for Selectivity index (SI=IC50/MIC): S. aureus ATCC 29213, HaCaT cell lines, 24 h exposure; for MIC: Staphylococcus aureus
Excerpt: as §1, §2, §3, §4, §5, §6, §7

[4] = tested on: P. aeruginosa overexpressing an efflux pump (PaR1); assay: MIC by microdilution, clinical isolate; conditions: Pseudomonas aeruginosa
Protocol: (§8) The study also included 5 clinical isolates, obtained from rectal samples and/or from haemoculture: • […] E. coli (EcR1), • methicillin-resistant S. aureus (mecA gene) (SaR1), • vancomycin-resistant E. faecium (vanB gene) (EfR1), • E. faecalis resistant to teicoplanin and to vancomycin (vanA gene) (EfR2), and • P. aeruginosa overexpressing an efflux pump (PaRl).
(§9) The isolates were selected on the basis of their resistance profile. The resistance profiles were determined on VITEK2 (BioMérieux, France).
as §2, §3, §4, §5, §6, §7

[5] = tested on: penicillinase-producing E. coli (EcR1); assay: MIC by microdilution, clinical isolate; conditions: Escherichia coli
Protocol: as §8, §9, §2, §3, §4, §5, §6, §7

[6] = tested on: E. faecalis resistant to teicoplanin and to vancomycin (vanA gene) (EfR2); assay: MIC by microdilution, clinical isolate; conditions: Enterococcus faecalis
Protocol: as §8, §9, §2, §3, §4, §5, §6, §7

[7] = in vitro; conditions: human
Excerpt: The eukaryotic cells used in our study are HaCaT cells (human keratinocytes), which were kindly supplied by the Pierre Fabre Institute (Toulouse, France); and MRC-5 cells (human embryonic fibroblasts), which were obtained from the company BioMérieux (Lyons, France). These cells are cultivated in DMEM (“Dulbecco's modified Eagle's medium”, Invitrogen 61965) for the HaCaT cells, and MEM (“modified Eagle's medium”, Invitrogen 41090); 10% of fetal calf serum (FCS, Invitrogen, 10270, Batch 40Q5150K) in a humid chamber at 37° C., under 5% CO2. The HaCaT and MRC-5 cells were seeded at 10^4 cells/well in 96-well plates (Sarstedt 831835). After 48 h of growth, the culture medium is withdrawn and replaced with the various “test” solutions (volume=100 μL). After contact time of 24, 48 and/or 168 H,the viability or cytotoxicity tests are carried out.
b) Cytotoxicity Tests (Neutral Red Test)
The cytotoxicity test is based on incorporation of a vital dye, Neutral Red, in the lysosomes of the viable cells, after exposure of the cells to different concentrations of the test molecules. The quantity of dye, after extraction from the lysosomes, is quantified by means of a spectrophotometer and compared with that obtained in the case of “control” cells, not exposed to the test molecules.
The test was carried out as described previously [Borenfreund E, Puerner J A. Toxicity determined in vitro by morphological alterations and neutral red absorption. Toxicol Lett 1985; 24: 119-24, and Grare M, Mourer M, Fontanay S, Regnouf-de-Vains J B, Finance C, Duval R E. In vitro activity of para-guanidinoethylcalix[4]arene against susceptible and antibiotic-resistant Gram-negative and Gram-positive bacteria. J Antimicrob Chemother. 2007; 60: 575-81].
After contact times of 24, 48 and/or 168 h with the different concentrations of the test molecules, the medium contained in each well is withdrawn and replaced with 200 μL of medium without phenol red (Invitrogen, 51200) containing 50 μg/mL of Neutral Red for an additional 3 h of incubation. The cells are then rinsed 3 times with PBS solution. After the last washing with PBS, 200 μL of a solution with 1% acetic acid/50% ethanol is added to each well to extract the dye from the lysosomes of the viable cells. The absorbance is measured at 540 nm, with a reference wavelength at 690 nm, by means of an ELISA plate reader (Multiskan E X, Thermo Electron Corporation, France). The results are the mean of the values obtained for 8 wells per concentration and per unit time. Each experiment was carried out 3 times.

[8] = tested on: Escherichia coli ATCC 25922; assay: MIC by microdilution in liquid medium (CLSI / CA-SFM); conditions: E. coli ATCC 25922; HaCaT cell lines, 24 h exposure
[9] = tested on: Staphylococcus aureus ATCC 25923; assay: as above; conditions: S. aureus ATCC 25923; HaCaT cell lines, 24 h exposure
[10] = tested on: Enterococcus faecalis ATCC 29212; assay: as above; conditions: E. faecalis ATCC 29212; HaCaT cell lines, 24 h exposure
[11] = ATCC25922, E. coli ATCC 25922, reference strain, read-out: MIC
[12] = ATCC29212, E. faecalis ATCC 29212, reference strain, read-out: MIC
[13] = ATCC29213, S. aureus ATCC 29213, reference strain, read-out: MIC
[14] = clinical isolate, penicillinase-producing E. coli, read-out: MIC
[15] = clinical isolate, E. faecalis (vanA gene), read-out: MIC

## [H]/N=C(\N/C(=N/[H])NCCCCCCNC(=N)NC(=N)Nc1ccc(Cl)cc1)Nc1ccc(Cl)cc1 [CHX, chlorhexidine]
[1]; [11]
  MIC: 0.25 µg/mL (≈ 0.495 µM)
[2]; [12]
  MIC: 2 µg/mL (≈ 3.96 µM)
[3]
  Selectivity index (SI=IC50/MIC): 32-64
[3]; [13]
  MIC: 0.5 µg/mL (≈ 0.989 µM)
[4]
  MIC: 8 µg/mL (≈ 15.8 µM)
[5]; [14]
  MIC: 0.5 µg/mL (≈ 0.989 µM)
[6]; [15]
  MIC: 2 µg/mL (≈ 3.96 µM)
[7]
  CC50 at 24 h: 8 to 16 µg/mL (≈ 15.8 to 31.7 µM)
[8]
  Selectivity index (SI=IC50/MIC): 64-128
[9]
  Selectivity index (SI=IC50/MIC): 32-64
[10]
  Selectivity index (SI=IC50/MIC): 8-16

## N=C(N)c1ccc(OCCCCCCOc2ccc(C(=N)N)cc2)cc1 [HX, hexamidine]
[1]; ATCC25922
  MIC: 8 µg/mL (≈ 22.6 µM)
[2]; ATCC29212
  MIC: 2 µg/mL (≈ 5.64 µM)
[3]
  Selectivity index (SI=IC50/MIC): ≧32
[3]; ATCC29213
  MIC: < 1 µg/mL
[4]
  MIC: 64 µg/mL (≈ 181 µM)
[5]
  MIC: 8 µg/mL (≈ 22.6 µM)
[6]
  MIC: 4 µg/mL (≈ 11.3 µM)
[7]
  CC50 at 24 h: 8 to 16 µg/mL (≈ 22.6 to 45.1 µM)
  CC50 at 48 h: 8 to 16 µg/mL (≈ 22.6 to 45.1 µM)
[8]
  Selectivity index (SI=IC50/MIC): 4-8
[9]
  Selectivity index (SI=IC50/MIC): 8-16
[10]
  Selectivity index (SI=IC50/MIC): 16-32

## N=C(N)NCCc1ccc(OCCCCCCOc2ccc(CCNC(=N)N)cc2)cc1 [compound 6, 1,6-bis(4-(2-guanidinoethyl)phenoxy)hexane]
[1]; [11]
  MIC: 4 µg/mL (≈ 9.08 µM)
[2]; [12]
  MIC: 8 µg/mL (≈ 18.2 µM)
[3]
  Selectivity index (SI=IC50/MIC): 16-32
[3]; [13]
  MIC: 0.25 µg/mL (≈ 0.567 µM)
[4]
  MIC: 32 µg/mL (≈ 72.6 µM)
[5]; [14]
  MIC: 4 µg/mL (≈ 9.08 µM)
[6]; [15]
  MIC: 16 µg/mL (≈ 36.3 µM)
[7]
  CC50 at 24 h: 4 to 8 µg/mL (≈ 9.08 to 18.2 µM)
[8]
  Selectivity index (SI=IC50/MIC): 1-2
[9]
  Selectivity index (SI=IC50/MIC): 8-16
[10]
  Selectivity index (SI=IC50/MIC): 0.5-1^
